Laboratory results as given in patent US12404283B2, “c-MYC mRNA translation modulators and uses thereof in the treatment of cancer” (Anima Biotech Inc., priority 2022, dated 2025).
Where a name gives a salt, the structure may show the parent alone.

Test system: c-Myc
Test: c-Myc immunofluorescence assay
Assay type: cell-based, human
Conditions: A549 cells, 24 hours treatment, anti-c-Myc immunofluorescence
Procedure, shortened: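 High-content imaging (20×) of PFA-fixed A549 cells immunostained for c-Myc with DAPI nuclei, after 24 h compound treatment at increasing concentrations. Per-cell c-Myc signal in identified cell regions was plotted against dose and fitted by logistic regression to give EC50.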

Compound | Myc Efficacy (−LogEC50)
Cc1cccc(-c2cn3c(n2)sc2cc(C(=O)N[C@H]4C[C@H](N5CCCCC5)C4)ccc23)c1 [compound 151, N-((1r,3r)-3-(piperidin-1-yl)cyclobutyl)-2-(m-tolyl)benzo[d]imidazo[2,1-b]thiazole-7-carboxamide] | + (+ >3 and <5)
CCN(CC)CCCNC(=O)c1ccc2c(c1)sc1nc(-c3cccc(OC)c3)cn12 [compound 152, N-(3-(diethylamino)propyl)-2-(3-methoxyphenyl)benzo[d] imidazo[2,1-b]thiazole-7-carboxamide] | ++ (++ ≥5 and <6)
CCN(CC)CCCNC(=O)c1ccc2c(c1)sc1nc(-c3cccc(-c4ccccc4)c3)cn12 [compound 153, 2-([1,1′-biphenyl]-3-yl)-N-(3-(diethylamino)propyl)benzo [d]imidazo[2,1-b]thiazole-7-carboxamide] | + (+ >3 and <5)
CCN(CC)CCCNC(=O)c1ccc2c(c1)sc1nc(-c3ccc(C(=O)N(C)C)cc3)cn12 [compound 154, N-(3-(diethylamino)propyl)-2-(4-(dimethylcarbamoyl)phenyl) benzo[d]imidazo[2,1-b]thiazole-7-carboxamide formate] | + (+ >3 and <5)
CCNCCCNC(=O)c1ccc2c(c1)sc1nc(-c3cccc(C)c3)cn12 [compound 155] | ++ (++ ≥5 and <6)
Cc1cccc(-c2cn3c(n2)sc2cc(C(=O)NCCC4CCCN4)ccc23)c1 (stereo not shown) [compound 156, N-(2-(pyrrolidin-2-yl)ethyl)-2-(m-tolyl)benzo[d]imidazo[2,1-b]thiazole-7-carboxamide] | ++ (++ ≥5 and <6)
CN[C@H]1C[C@@H](NC(=O)c2ccc3c(c2)sc2nc(-c4cccc(C)c4)cn23)C1 [compound 157, N-((1s,3s)-3-(methylamino)cyclobutyl)-2-(m-tolyl)benzo[d]imidazo[2,1-b]thiazole-7-carboxamide formate] | ++ (++ ≥5 and <6)
CN[C@H]1C[C@H](NC(=O)c2ccc3c(c2)sc2nc(-c4cccc(C)c4)cn23)C1 [compound 158, N-((1r,3r)-3-(methylamino)cyclobutyl)-2-(m-tolyl)benzo[d]imidazo[2,1-b]thiazole-7-carboxamide formate] | ++ (++ ≥5 and <6)
Cc1cccc(-c2cn3c(n2)sc2cc(C(=O)NCCC(=O)N4CCCC4)ccc23)c1 [compound 159, N-(3-oxo-3-(pyrrolidin-1-yl)propyl)-2-(m-tolyl)benzo[d]imidazo[2,1-b]thiazole-7-carboxamide] | + (+ >3 and <5)
CCN(CC)CCCNC(=O)c1ccc2c(c1)sc1nc(-c3ccc(C#N)cc3)cn12 [compound 160, 2-(4-cyanophenyl)-N-(3-(diethylamino)propyl)benzo [d]imidazo[2,1-b]thiazole-7-carboxamide] | + (+ >3 and <5)
CCN(CC)CCCNC(=O)c1ccc2c(c1)sc1nc(-c3ccncc3)cn12 [compound 161, N-(3-(diethylamino)propyl)-2-(pyridin-4-yl)benzo[d]imidazo[2,1-b]thiazole-7-carboxamide] | +++ (+++ ≥6)
CCN(CC)CCCNC(=O)c1ccc2c(c1)sc1nc(N3CCOCC3)cn12 [compound 162, N-(3-(diethylamino)propyl)-2-morpholinobenzo[d]imidazo [2,1-b]thiazole-7-carboxamide] | − (− ≤3)
CCN(CC)CCCNC(=O)c1ccc2c(c1)sc1nc(-c3ccc(CN)cc3)cn12 [compound 163, 2-(4-(aminomethyl)phenyl)-N-(3-(diethylamino)propyl)benzo [d]imidazo[2,1-b]thiazole-7-carboxamide] | +++ (+++ ≥6)
CCN(CC)CCCNC(=O)c1ccc2c(c1)sc1nc(-c3ccc(NC)cc3)cn12 [compound 164, N-(3-(diethylamino)propyl)-2-(4-(methylamino)phenyl)benzo [d]imidazo[2,1-b]thiazole-7-carboxamide] | +++ (+++ ≥6)
CCN(CC)CCCNC(=O)c1ccc2c(c1)sc1nc(-c3cncc(C)c3)cn12 [compound 165, N-(3-(diethylamino)propyl)-2-(5-methylpyridin-3-yl)benzo[d]imidazo[2,1-b]thiazole-7-carboxamide] | + (+ >3 and <5)
CCN(CC)CCCNC(=O)c1ccc2c(c1)sc1nc(-c3ccc(C(=O)NC)cc3F)cn12 [compound 166, N-(3-(diethylamino)propyl)-2-(2-fluoro-4-(methylcarbamoyl)phenyl) benzo[d]imidazo[2,1-b]thiazole-7-carboxamide] | +++ (+++ ≥6)
CCN(CC)CCCNC(=O)c1ccc2c(c1)sc1nc(-c3cccc(C(=O)NC)c3)cn12 [compound 167, N-(3-(diethylamino)propyl)-2-(3-(methylcarbamoyl)phenyl) benzo[d]imidazo[2,1-b]thiazole-7-carboxamide] | + (+ >3 and <5)
Cc1cccc(-c2cn3c(n2)sc2cc(NC(=O)C4CCNCC4)ccc23)c1 [compound 168, N-(2-(m-tolyl)benzo[d]imidazo[2,1-b]thiazol-7-yl)piperidine-4-carboxamide] | ++ (++ ≥5 and <6)
CCN(CC)CCCNC(=O)c1ccc2c(c1)sc1nc(-c3cccc(C(C)C)c3)cn12 [compound 169, N-(3-(diethylamino)propyl)-2-(3-isopropylphenyl)benzo[d] imidazo[2,1-b]thiazole-7-carboxamide] | ++ (++ ≥5 and <6)
CCN(CC)CCCNC(=O)c1ccc2c(c1)sc1nc(-c3cccc(N4CCOCC4)c3)cn12 [compound 170, N-(3-(diethylamino)propyl)-2-(3-morpholinophenyl)benzo[d] imidazo[2,1-b]thiazole-7-carboxamide] | ++ (++ ≥5 and <6)
CCN(CC)CCCNC(=O)c1ccc2c(c1)sc1nc(-c3cccc(N4CCCC4)c3)cn12 [compound 171, N-(3-(diethylamino)propyl)-2-(3-(pyrrolidin-1-yl)phenyl)benzo[d]imidazo [2,1-b]thiazole-7-carboxamide] | ++ (++ ≥5 and <6)
CCN(CC)CCCNC(=O)c1ccc2c(c1)sc1nc(-c3ccc(C(=O)O)cc3)cn12 [compound 172, 4-(7-((3-(diethylamino)propyl)carbamoyl)benzo[d]imidazo [2,1-b]thiazol-2-yl)benzoic acid] | − (− ≤3)
CCN(CC)CCCNC(=O)c1ccc2c(c1)sc1nc(-c3ccc(C4COC4)cc3)cn12 [compound 173, N-(3-(diethylamino)propyl)-2-(4-(oxetan-3-yl)phenyl)benzo[d]imidazo [2,1-b]thiazole-7-carboxamide] | ++ (++ ≥5 and <6)
CNC(=O)c1ccc(-c2cn3c(n2)sc2cc(C(=O)NCCCN4CCCCC4)ccc23)cc1 [compound 174, 2-(4-(methylcarbamoyl)phenyl)-N-(3-(piperidin-1-yl)propyl)benzo[d]imidazo [2,1-b]thiazole-7-carboxamide] | +++ (+++ ≥6)
CNC(=O)c1ccc(-c2cn3c(n2)sc2cc(C(=O)NCCCN4CCNCC4)ccc23)cc1 [compound 175, 2-(4-(methylcarbamoyl)phenyl)-N-(3-(piperazin-1-yl)propyl)benzo[d]imidazo [2,1-b]thiazole-7-carboxamide] | − (− ≤3)
